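The compound was tested at five concentrations on cells cultured in 96-well plates, with a 48-hour exposure period. Here, GI50 denotes the concentration required for 50% inhibition of growth. At the TGI there is no net growth.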
Key:
Test in all cases: growth of human tumour cells (NCI), 48 h
TK-10 renal = tested on: TK-10 renal
MDA-MB-231 breast = tested on: MDA-MB-231 breast
SK-MEL-5 melanoma = tested on: SK-MEL-5 melanoma
HL-60(TB) leukemia = tested on: HL-60(TB) leukemia
SNB-75 CNS = tested on: SNB-75 CNS
RXF 393 renal = tested on: RXF 393 renal
K-562 leukemia = tested on: K-562 leukemia
SN12C renal = tested on: SN12C renal
SF-295 CNS = tested on: SF-295 CNS
HOP-62 NSCLC = tested on: HOP-62 NSCLC
UACC-62 melanoma = tested on: UACC-62 melanoma
SR leukemia = tested on: SR leukemia
HOP-92 NSCLC = tested on: HOP-92 NSCLC
PC-3 prostate = tested on: PC-3 prostate
MALME-3M melanoma = tested on: MALME-3M melanoma
LOX IMVI melanoma = tested on: LOX IMVI melanoma
IGROV1 ovarian = tested on: IGROV1 ovarian
MDA-N = tested on: MDA-N
A549 NSCLC = tested on: A549 NSCLC
SF-268 CNS = tested on: SF-268 CNS
COLO 205 colon = tested on: COLO 205 colon
HCC-2998 colon = tested on: HCC-2998 colon
MCF7 breast = tested on: MCF7 breast
M14 melanoma = tested on: M14 melanoma
NCI-H23 lung = tested on: NCI-H23 lung
SK-OV-3 ovarian = tested on: SK-OV-3 ovarian
SW-620 colon = tested on: SW-620 colon
RPMI-8226 leukemia = tested on: RPMI-8226 leukemia
DU-145 prostate = tested on: DU-145 prostate
MDA-MB-435 = tested on: MDA-MB-435
KM12 colon = tested on: KM12 colon
UACC-257 melanoma = tested on: UACC-257 melanoma
OVCAR-4 ovarian = tested on: OVCAR-4 ovarian
HT29 colon = tested on: HT29 colon
EKVX NSCLC = tested on: EKVX NSCLC
MOLT-4 leukemia = tested on: MOLT-4 leukemia
HCT-15 colon = tested on: HCT-15 colon
OVCAR-8 ovarian = tested on: OVCAR-8 ovarian
CCRF-CEM leukemia = tested on: CCRF-CEM leukemia
T-47D breast = tested on: T-47D breast
786-0 renal = tested on: 786-0 renal
SK-MEL-28 melanoma = tested on: SK-MEL-28 melanoma
CAKI-1 renal = tested on: CAKI-1 renal
NCI-H522 lung = tested on: NCI-H522 lung
SK-MEL-2 melanoma = tested on: SK-MEL-2 melanoma
HS 578T breast = tested on: HS 578T breast
OVCAR-5 ovarian = tested on: OVCAR-5 ovarian
A498 renal = tested on: A498 renal
OVCAR-3 ovarian = tested on: OVCAR-3 ovarian
SNB-19 CNS = tested on: SNB-19 CNS
NCI-H226 lung = tested on: NCI-H226 lung
HCT-116 colon = tested on: HCT-116 colon
NCI-H460 lung = tested on: NCI-H460 lung
ACHN renal = tested on: ACHN renal
NCI/ADR-RES ovarian = tested on: NCI/ADR-RES ovarian
BT-549 breast = tested on: BT-549 breast
UO-31 renal = tested on: UO-31 renal
U251 CNS = tested on: U251 CNS
SF-539 CNS = tested on: SF-539 CNS

`CCOC(=O)N1CCC2C(=C(C)C(C)C3=C2C(=O)c2ccccc2C3=O)C1` (centres undefined) was tested, and the TGI (TK-10 renal) was over 10 µM, the TGI (MDA-MB-231 breast) was over 10 µM and the TGI (SK-MEL-5 melanoma) was 4.27 µM. For the same compound, the TGI (HL-60(TB) leukemia) was 5.15 µM, the TGI (SNB-75 CNS) was over 10 µM and the TGI (RXF 393 renal) was over 10 µM. It also gave a TGI (K-562 leukemia) of over 10 µM, a TGI (SN12C renal) of over 10 µM and a TGI (SF-295 CNS) of over 10 µM. The TGI (HOP-62 NSCLC) was over 10 µM, the TGI (UACC-62 melanoma) was over 10 µM and the TGI (SR leukemia) was over 10 µM. For the same compound, the TGI (HOP-92 NSCLC) was over 10 µM, the TGI (PC-3 prostate) was over 10 µM and the TGI (MALME-3M melanoma) was 6.77 µM. The TGI (LOX IMVI melanoma) was over 10 µM, the TGI (IGROV1 ovarian) was over 10 µM and the TGI (MDA-N) was over 10 µM. The TGI (A549 NSCLC) was over 10 µM, the TGI (SF-268 CNS) was over 10 µM and the TGI (COLO 205 colon) was over 10 µM. It also gave a TGI (HCC-2998 colon) of over 10 µM, a TGI (MCF7 breast) of over 10 µM and a TGI (M14 melanoma) of over 10 µM. The TGI (NCI-H23 lung) was over 10 µM, the TGI (SK-OV-3 ovarian) was over 10 µM and the TGI (SW-620 colon) was over 10 µM. The TGI (RPMI-8226 leukemia) was over 10 µM, the TGI (DU-145 prostate) was over 10 µM and the TGI (MDA-MB-435) was 4.53 µM. The TGI (KM12 colon) was over 10 µM, the TGI (UACC-257 melanoma) was over 10 µM and the TGI (OVCAR-4 ovarian) was over 10 µM. The TGI (HT29 colon) was over 10 µM, the TGI (EKVX NSCLC) was over 10 µM and the TGI (MOLT-4 leukemia) was over 10 µM. The TGI (HCT-15 colon) was over 10 µM, the TGI (OVCAR-8 ovarian) was over 10 µM and the TGI (CCRF-CEM leukemia) was over 10 µM. The TGI (T-47D breast) was over 10 µM, the TGI (786-0 renal) was over 10 µM and the TGI (SK-MEL-28 melanoma) was over 10 µM. It also gave a TGI (CAKI-1 renal) of over 10 µM.

Work on `Cc1cc(Cl)ccc1Nc1nc(C(F)(F)F)ccc1C(=O)N/N=C/c1cccc(O)c1` yielded a GI50 (NCI-H522 lung) of 8.28 µM, a TGI (NCI-H522 lung) of over 41 µM and a GI50 (SK-MEL-2 melanoma) of 2.09 µM. The TGI (SK-MEL-2 melanoma) was 12.7 µM, the GI50 (HS 578T breast) was 2.11 µM and the TGI (HS 578T breast) was 11.5 µM. The GI50 (TK-10 renal) was 2.45 µM, the TGI (TK-10 renal) was 12.3 µM and the GI50 (MDA-MB-231 breast) was 4.77 µM. It also gave a TGI (MDA-MB-231 breast) of 35.4 µM, a GI50 (SK-MEL-5 melanoma) of 3.35 µM and a TGI (SK-MEL-5 melanoma) of 12.6 µM. The GI50 (HL-60(TB) leukemia) was 2.11 µM, the TGI (HL-60(TB) leukemia) was 4.97 µM and the GI50 (OVCAR-5 ovarian) was 5.96 µM. For the same compound, the TGI (OVCAR-5 ovarian) was 25 µM, the GI50 (SNB-75 CNS) was 2.07 µM and the TGI (SNB-75 CNS) was 13.8 µM. The GI50 (A498 renal) was 4.23 µM, the TGI (A498 renal) was 18.1 µM and the GI50 (RXF 393 renal) was 0.194 µM. It also gave a TGI (RXF 393 renal) of 11.3 µM, a GI50 (K-562 leukemia) of 1.99 µM and a TGI (K-562 leukemia) of 7.1 µM. It also gave a GI50 (OVCAR-3 ovarian) of 1.48 µM, a TGI (OVCAR-3 ovarian) of 12.7 µM and a GI50 (SN12C renal) of 6.77 µM. It also gave a TGI (SN12C renal) of 23.8 µM, a GI50 (SF-295 CNS) of 0.159 µM and a TGI (SF-295 CNS) of 1.1 µM. It also gave a GI50 (HOP-62 NSCLC) of 7.22 µM, a TGI (HOP-62 NSCLC) of 20.7 µM and a GI50 (UACC-62 melanoma) of 5.88 µM. The TGI (UACC-62 melanoma) was 19.5 µM, the GI50 (SR leukemia) was 0.836 µM and the TGI (SR leukemia) was 4.49 µM. For the same compound, the GI50 (SNB-19 CNS) was 2.37 µM, the TGI (SNB-19 CNS) was 11.9 µM and the GI50 (HOP-92 NSCLC) was 3.36 µM. It also gave a TGI (HOP-92 NSCLC) of 13.9 µM, a GI50 (NCI-H226 lung) of 3.74 µM and a TGI (NCI-H226 lung) of 20.1 µM. It also gave a GI50 (PC-3 prostate) of 2.96 µM, a TGI (PC-3 prostate) of 12.9 µM and a GI50 (MALME-3M melanoma) of 1.75 µM. It also gave a TGI (MALME-3M melanoma) of 8.8 µM, a GI50 (LOX IMVI melanoma) of 3.18 µM and a TGI (LOX IMVI melanoma) of 13.6 µM. The GI50 (HCT-116 colon) was 4.42 µM, the TGI (HCT-116 colon) was 16.5 µM and the GI50 (IGROV1 ovarian) was 3.85 µM. For the same compound, the TGI (IGROV1 ovarian) was 23.4 µM, the GI50 (NCI-H460 lung) was 3.57 µM and the TGI (NCI-H460 lung) was 12.8 µM. It also gave a GI50 (A549 NSCLC) of 8.15 µM, a TGI (A549 NSCLC) of 25.5 µM and a GI50 (SF-268 CNS) of 1.6 µM. For the same compound, the TGI (SF-268 CNS) was 12.2 µM, the GI50 (COLO 205 colon) was 1.17 µM and the TGI (COLO 205 colon) was 9.55 µM. The GI50 (ACHN renal) was 4.19 µM, the TGI (ACHN renal) was over 31.8 µM and the GI50 (HCC-2998 colon) was 3.13 µM. For the same compound, the TGI (HCC-2998 colon) was 13.8 µM, the GI50 (MCF7 breast) was 2.21 µM and the TGI (MCF7 breast) was 12.7 µM. The GI50 (NCI/ADR-RES ovarian) was 4.78 µM, the TGI (NCI/ADR-RES ovarian) was 17.6 µM and the GI50 (M14 melanoma) was 4.53 µM. It also gave a TGI (M14 melanoma) of 17.3 µM, a GI50 (NCI-H23 lung) of 6.66 µM and a TGI (NCI-H23 lung) of 20.1 µM. The GI50 (SK-OV-3 ovarian) was 1.23 µM, the TGI (SK-OV-3 ovarian) was 10.6 µM and the GI50 (SW-620 colon) was 3.39 µM. For the same compound, the TGI (SW-620 colon) was 14.9 µM, the GI50 (BT-549 breast) was 0.861 µM and the TGI (BT-549 breast) was 4.24 µM. The GI50 (RPMI-8226 leukemia) was 2.51 µM, the TGI (RPMI-8226 leukemia) was 9.68 µM and the GI50 (DU-145 prostate) was 3.66 µM. For the same compound, the TGI (DU-145 prostate) was 15.2 µM, the GI50 (MDA-MB-435) was 2.17 µM and the TGI (MDA-MB-435) was 13.7 µM. The GI50 (KM12 colon) was 2.56 µM, the TGI (KM12 colon) was 11.9 µM and the GI50 (UACC-257 melanoma) was 11.5 µM. For the same compound, the TGI (UACC-257 melanoma) was 38.2 µM, the GI50 (OVCAR-4 ovarian) was 1.13 µM and the TGI (OVCAR-4 ovarian) was 14.6 µM. It also gave a GI50 (HT29 colon) of 5.03 µM, a TGI (HT29 colon) of 16.9 µM and a GI50 (UO-31 renal) of 4.98 µM. For the same compound, the TGI (UO-31 renal) was 29 µM, the GI50 (EKVX NSCLC) was 0.814 µM and the TGI (EKVX NSCLC) was 7.19 µM. It also gave a GI50 (MOLT-4 leukemia) of 1.01 µM, a TGI (MOLT-4 leukemia) of 3.27 µM and a GI50 (HCT-15 colon) of 2.51 µM. For the same compound, the TGI (HCT-15 colon) was 16 µM, the GI50 (OVCAR-8 ovarian) was 1.68 µM and the TGI (OVCAR-8 ovarian) was 15.3 µM. For the same compound, the GI50 (CCRF-CEM leukemia) was 0.449 µM, the TGI (CCRF-CEM leukemia) was 2.41 µM and the GI50 (T-47D breast) was 0.112 µM. For the same compound, the TGI (T-47D breast) was 3.13 µM, the GI50 (U251 CNS) was 4.51 µM and the TGI (U251 CNS) was 19.8 µM. It also gave a GI50 (786-0 renal) of 4.01 µM, a TGI (786-0 renal) of 13.3 µM and a GI50 (SK-MEL-28 melanoma) of 3.65 µM. For the same compound, the TGI (SK-MEL-28 melanoma) was 16.8 µM, the GI50 (CAKI-1 renal) was 0.202 µM and the TGI (CAKI-1 renal) was 5.98 µM. For the same compound, the GI50 (SF-539 CNS) was 4.38 µM and the TGI (SF-539 CNS) was 15.8 µM.
